Measured values taken from patent US8748491B2, “Dietary and pharmaceutical compositions containing tricyclic diterpenes and their derivatives and their uses” (priority 2006, dated 2014).

Assays:
mouse [1] = assay: Marble burying test; assay type: in vivo; details: mouse; for NUMBER OF MARBLES COVERED BY SAWDUST % change from control / NUMBER OF MARBLES COVERED BY SAWDUST mean ± s.e.m.: Table 5
Protocol: The method applied here follows that described by Broekkamp et al., supra. Mice (n=15 per treatment group) were individually placed in transparent plastic cages (33×21×18 cm) with 5 cm of sawdust on the floor and 25 marbles (diameter 1 cm) grouped in the centre of the cage. A second, up-turned, cage served as a lid. The number of marbles covered by sawdust (by at least two-thirds) was counted at the end of the 30-minute test period. Tests were performed by investigators blind to the drug treatment protocol.
Prior to testing, all test cages and marbles were “impregnated” by leaving 10 naive mice in each cage for 15 minutes. […]
Data were analysed by comparing treated groups with vehicle control using unpaired Student's t-tests.

[2] = molecular target: T1, human dopamine transporter (hDAT) (Homo sapiens, UniProt Q01959); assay: Inhibition of dopamine reuptake into transfected CHO-Ki/hDAT cells; assay type: cell-based; details: 50 nM [3H]Dopamine
T1 construct: expressed in transfected cells; host or cells: CHO-Ki (so in the source)
Protocol: CHO-Ki/hDAT cells expressing the human dopamine transporter (hDAT) were plated before the assay. Cells (2×10^5/ml) were incubated with carnosic acid and/or vehicle in modified Tris-HEPES buffer, pH 7.1, at 25° C. for 20 minutes before addition of 50 nM [^3H]Dopamine for 10 minutes. Specific signal was determined in the presence of 10 μM nomifensine (dopamine reuptake inhibitor). Cells were then solubilised with 1% SDS lysis buffer. Reduction of [^3H]Dopamine uptake by 50 per cent or more (≧50%) relative to vehicle controls indicated significant inhibitory activity.

mouse [3] = assay: Porsolt's forced swim test (FST); assay type: in vivo
Protocol: Mice were individually placed in cylinders (24.5 cm height, 19.5 cm internal diameter) containing 13.5 cm depth of water (22±0.5° C.) for a period of 6 minutes, behavioural parameters of interest being analysed during the final 4 minutes of the test, since the first 2 minutes include vigorous activity. Six cylinders were placed in a Perspex box, thus enabling six mice to be tested simultaneously.
Automatic monitoring of swim tests was enabled through the use of VideoMot2 software (TSE Technical and Scientific Equipment GmbH, Bad Homburg, Germany). All to experiments were observed via a black and white CCD camera. The rest:locomotion and stop:start thresholds, as determined by setting parameters in the software programme, determine the number of pixels which must change for a movement to be registered, enabling the software to determine whether a mouse is swimming or resting. The parameters which are automatically recorded include: rest time and locomotion time (ms), % rest and % locomotion, distance travelled (cm), speed of travel (cm/s) and number of stops.
Data were analysed by comparing treated groups with the untreated control group using Fisher's PLSD (StatView, SAS Institute Inc., Cary, N.C., USA)

[4] = molecular target: T2, Monoamine oxidase A (MAO-A) (Homo sapiens, UniProt P21397); assay: Monoamine oxidase A inhibition (p-tyramine substrate, H2O2/vanillic acid/HRP readout); assay type: biochemical
T2 sequence (P21397 1-527): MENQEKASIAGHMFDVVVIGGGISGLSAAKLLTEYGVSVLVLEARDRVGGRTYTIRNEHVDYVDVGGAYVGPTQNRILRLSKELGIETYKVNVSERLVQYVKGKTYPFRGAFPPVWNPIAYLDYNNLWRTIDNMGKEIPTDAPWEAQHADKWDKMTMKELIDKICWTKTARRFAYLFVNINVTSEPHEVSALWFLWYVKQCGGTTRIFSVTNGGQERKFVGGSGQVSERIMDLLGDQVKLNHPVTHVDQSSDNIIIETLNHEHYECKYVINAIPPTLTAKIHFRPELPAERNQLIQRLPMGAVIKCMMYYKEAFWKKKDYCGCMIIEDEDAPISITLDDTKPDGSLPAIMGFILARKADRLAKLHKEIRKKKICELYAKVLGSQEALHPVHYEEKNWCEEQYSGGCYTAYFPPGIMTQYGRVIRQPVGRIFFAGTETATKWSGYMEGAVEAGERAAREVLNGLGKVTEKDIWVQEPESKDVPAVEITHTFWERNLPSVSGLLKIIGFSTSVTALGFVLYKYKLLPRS
Protocol: The organic amines p-tyramine or benzylamine were used as substrates for the Monoamine oxidase A (MAO-A) and B (MAO-B) enzymes respectively. The H2O2 produced by this reaction was quantified by reaction with vanillic acid, catalysed by horse radish peroxidase (HRP).
The reactions were carried out in polystyrene microtitre plates. The MAO enzymes (final concentration 2 U/ml) were mixed with either p-tyramine (Sigma, final concentration 0.5 mM) or benzylamine (Sigma, final concentration 0.5 mM) as appropriate and the chromogenic solution (containing vanillic acid (Fluka), 4-aminoantipyrine (Fluka) and horse radish peroxidase (Sigma), final concentrations 0.25 mM, 0.125 mM and 1 U/ml respectively) in 0.2 M potassium phosphate buffer, pH 7.6. The reactions were followed in a microtitre plate absorbance reader e.g. Spectramax M5 (Molecular Devices Corporation). Absorbance readings at 495 nm were taken every 15 seconds for 40 minutes and the initial reaction velocities calculated by linear regression using SOFTmaxPro (Molecular Devices Corporation).
The effect of tricyclic diterpenes and their derivatives according to formula I on the monoamine oxidase enzymes was determined by their inclusion in the assay at a range of concentrations between 0.03 and 100 μM for 10 minutes prior to and during the incubation with substrate. To determine the effect of the compounds on the HRP catalyzed portion of the reaction, the MAO enzyme was replaced by H2O2 (Molecular Probes, final concentration 0.2 mM). The reactions containing MAO-A and MAO-B were both inhibited by tricyclic diterpenes and their derivatives according to formula I in a dose-dependent manner, whilst the control reaction, was unaffected. The measured IC50 values for inhibition of monoamine oxidase activity by carnosic acid, carnosic acid-12-methyl ether and 20-deoxo-carnosol are shown in Table 3.

T1 sequence (Q01959 whole entry): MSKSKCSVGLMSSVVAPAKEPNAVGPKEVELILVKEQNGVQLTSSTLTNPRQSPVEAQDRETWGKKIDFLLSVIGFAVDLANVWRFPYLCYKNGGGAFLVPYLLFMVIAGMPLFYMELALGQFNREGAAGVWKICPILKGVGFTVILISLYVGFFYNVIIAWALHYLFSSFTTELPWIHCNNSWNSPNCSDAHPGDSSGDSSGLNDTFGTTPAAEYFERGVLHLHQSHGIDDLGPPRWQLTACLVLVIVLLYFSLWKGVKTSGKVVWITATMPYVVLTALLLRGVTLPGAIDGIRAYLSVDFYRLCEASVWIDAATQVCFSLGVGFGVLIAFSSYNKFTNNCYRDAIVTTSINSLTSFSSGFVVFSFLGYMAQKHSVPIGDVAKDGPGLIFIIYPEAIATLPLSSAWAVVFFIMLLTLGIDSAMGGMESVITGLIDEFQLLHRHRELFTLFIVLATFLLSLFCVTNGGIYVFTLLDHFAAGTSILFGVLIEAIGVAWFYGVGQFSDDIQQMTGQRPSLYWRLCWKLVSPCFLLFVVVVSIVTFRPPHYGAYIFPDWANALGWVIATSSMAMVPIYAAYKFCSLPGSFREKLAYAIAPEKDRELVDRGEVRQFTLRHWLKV

Question: Which “NUMBER OF MARBLES COVERED BY SAWDUST % change from control” value (mouse [1]; 3 mg/kg i.p. −30 min) does the source give for `CC(C)c1cc2c(c(O)c1O)[C@@]1(C(=O)O)CCCC(C)(C)[C@@H]1CC2` [Carnosic acid, carnosic acid] here?
Answer: The value was −8%.

Question: And the “NUMBER OF MARBLES COVERED BY SAWDUST mean ± s.e.m.” value (mouse [1]; 3 mg/kg i.p. −30 min)?
Answer: The value was 21.9 ± 1.3.

Question: And the “NUMBER OF MARBLES COVERED BY SAWDUST % change from control” value (mouse [1]; 10 mg/kg i.p. −30 min)?
Answer: The value was −4%.

Question: And the “NUMBER OF MARBLES COVERED BY SAWDUST mean ± s.e.m.” value (mouse [1]; 10 mg/kg i.p. −30 min)?
Answer: The value was 22.7 ± 0.5.

Question: And the “NUMBER OF MARBLES COVERED BY SAWDUST % change from control” value (mouse [1]; 30 mg/kg i.p. −30 min)?
Answer: The value was −63%.

Question: And the “NUMBER OF MARBLES COVERED BY SAWDUST mean ± s.e.m.” value (mouse [1]; 30 mg/kg i.p. −30 min)?
Answer: Its value is 8.7 ± 2.9.

Question: What about the “marble burying behaviour (in words)” value (mouse [1]; highest dose tested (30 mg/kg) i.p.) of the same molecule?
Answer: Its value is “clearly and significantly reduced marble burying behaviour”.

Question: And the IC50 [2]?
Answer: The IC50 was 15 µM.

Question: What about the “Duration of immobility (% change from control)” value (mouse [3]; 10 mg/kg i.p., −30 min) of the same molecule?
Answer: The value was −29%.

Question: And the “Duration of immobility (% change from control)” value (mouse [3]; 20 mg/kg i.p., −30 min)?
Answer: The value was −30%.

Question: And the “Duration of immobility (% change from control)” value (mouse [3]; 30 mg/kg i.p., −30 min)?
Answer: Its value is −29%.

Question: And the “Duration of immobility (% change from control)” value (mouse [3]; 200 mg/kg p.o., −24, −5, −1 h)?
Answer: The value was −38%.

Question: And the “immobility behaviour (in words)” value (mouse [3]; all doses tested, i.p. and p.o. administration)?
Answer: Its value is “significantly reduced immobility behaviour”.

Question: What about the IC50 [4] of the same molecule?
Answer: The IC50 was 4.4 ± 0.3 µM.
